Columns and labels:
Assay in all cases: relative viability (nuclei count vs DMSO), 5 days (fraction); higher = more cells survive
Tanzisertib + Pictilisib = compound: O[C@H]1CC[C@H](Nc2ncc3nc(Nc4c(F)cc(F)cc4F)n([C@H]4CCOC4)c3n2)CC1 [Tanzisertib] + CS(=O)(=O)N1CCN(Cc2cc3nc(-c4cccc5[nH]ncc45)nc(N4CCOCC4)c3s2)CC1 [Pictilisib] (partner 1 µM)
Method in brief: (§1)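 Relative viability was taken as the ratio of nuclei in treated wells to nuclei in vehicle wells. Lung cancer cell lines in 1536-well plates received compounds by pin tool one day after seeding, either one drug alone or a fixed anchor-drug dose plus five library-drug doses (not always all listed) in √10 steps. Nuclei were counted on 4× images after 5 days of treatment, and values are medians of duplicate plates.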

[1] = compound: C[C@@H](N)c1ccc(C(=O)Nc2ccnc3[nH]ccc23)cc1 + COc1cccc2cc(-c3nc([C@H]4CC[C@H](C(=O)O)CC4)n4ncnc(N)c34)[nH]c12 [OSI-027] (partner 0.5 µM)
Method in brief: as §1

Tanzisertib + Olaparib = compound: O[C@H]1CC[C@H](Nc2ncc3nc(Nc4c(F)cc(F)cc4F)n([C@H]4CCOC4)c3n2)CC1 [Tanzisertib] + O=C(c1cc(Cc2n[nH]c(=O)c3ccccc23)ccc1F)N1CCN(C(=O)C2CC2)CC1 [Olaparib] (partner 8 µM)
Method in brief: as §1

[2] = compound: C[C@@H](N)c1ccc(C(=O)Nc2ccnc3[nH]ccc23)cc1 + O=C(c1cc(Cc2n[nH]c(=O)c3ccccc23)ccc1F)N1CCN(C(=O)C2CC2)CC1 [Olaparib] (partner 8 µM)
Method in brief: as §1

Cell Line | relative viability (Tanzisertib + Pictilisib; first compound 0.08 µM) | relative viability (Tanzisertib + Pictilisib; first compound 0.253 µM) | relative viability (Tanzisertib + Pictilisib; first compound 0.8 µM) | relative viability (Tanzisertib + Pictilisib; first compound 2.53 µM) | relative viability (Tanzisertib + Pictilisib; first compound 8 µM) | relative viability ([1]; first compound 0.04 µM) | relative viability ([1]; first compound 0.1265 µM) | relative viability ([1]; first compound 0.4 µM) | relative viability ([1]; first compound 4 µM) | relative viability (Tanzisertib + Olaparib; first compound 0.08 µM) | relative viability (Tanzisertib + Olaparib; first compound 0.253 µM) | relative viability (Tanzisertib + Olaparib; first compound 0.8 µM) | relative viability (Tanzisertib + Olaparib; first compound 2.53 µM) | relative viability (Tanzisertib + Olaparib; first compound 8 µM) | relative viability ([2]; first compound 0.1265 µM) | relative viability ([2]; first compound 0.4 µM) | relative viability ([2]; first compound 4 µM) | relative viability ([1]; first compound 1.265 µM) | relative viability ([2]; first compound 0.04 µM) | relative viability ([2]; first compound 1.265 µM)
NCI-H1915 | 1.19 | 0.958 | 0.946 | 0.95 | 0.732 | 0.562 | 0.64 | 0.63 | 0.489 | 0.29 | 0.271 | 0.244 | 0.245 | 0.25 | 0.229 | 0.26 | 0.216 |  |  | 
BEN | 0.577 | 0.555 | 0.612 | 0.561 | 0.48 | 0.293 | 0.307 | 0.3 | 0.284 | 1.05 | 0.968 | 1.05 | 1.12 | 0.997 | 1.08 | 1.11 | 0.542 | 0.314 | 1.04 | 1.27
NCI-H1437 | 0.445 | 0.492 | 0.452 | 0.486 | 0.565 | 0.947 | 0.838 | 0.853 | 0.919 | 0.634 | 0.647 | 0.669 | 0.652 | 0.619 | 0.678 | 0.636 | 0.645 | 1 | 0.649 | 0.632
EMC-BAC-2 | 0.606 | 0.534 | 0.57 | 0.528 | 0.419 | 0.294 | 0.399 | 0.299 | 0.279 | 0.484 | 0.477 | 0.455 | 0.488 | 0.533 | 0.516 | 0.477 | 0.425 | 0.346 |  | 0.505
NCI-H647 | 0.456 | 0.537 | 0.474 | 0.436 | 0.141 | 0.597 | 0.611 | 0.586 | 0.501 | 0.875 | 0.487 | 0.505 | 0.657 | 0.65 | 0.615 | 0.602 | 0.474 | 0.574 | 0.668 | 0.478
LXF-289 | 0.887 | 0.745 | 0.459 | 0.735 | 0.804 | 0.639 | 0.821 | 0.986 | 0.763 | 1.13 | 1.02 | 1.12 | 1.02 | 1.13 | 1.05 | 1.16 | 0.901 | 0.709 | 1.12 | 1.23
LOU-NH91 | 0.516 | 0.544 | 0.573 | 0.51 | 0.443 | 0.626 | 0.667 | 0.688 | 0.591 | 0.948 | 0.896 | 0.989 | 0.89 | 0.727 | 0.911 | 0.875 | 0.593 | 0.601 | 0.824 | 0.74
NCI-H23 | 0.488 | 0.483 | 0.459 | 0.499 | 0.365 | 0.603 | 0.577 | 0.592 | 0.674 | 0.316 | 0.341 | 0.36 | 0.301 | 0.314 | 0.335 | 0.368 | 0.3 |  | 0.311 | 

Source: the supplement of paper PMC10307832
